From patent US12655116B2, “Substituted isophthalic acid diamides” (Bayer Aktiengesellschaft, priority 2020, dated 2026)

Assays:
[1] = tested on: AVEFA; assay: Pre-emergence herbicidal action against AVEFA; type: in vivo, Avena fatua; conditions: Avena fatua, 504 h; 80 g/ha, pre-emergence
How it was run: (§1)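 Herbicidal effect was assessed 3 weeks after treatment by visual comparison with untreated controls, 100% denoting dead plants. Aqueous WP or EC preparations had been applied at 600 to 800 l/ha with 0.2% wetting agent to the soil covering freshly sown seeds.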

[2] = tested on: DIGSA; assay: Post-emergence herbicidal action against DIGSA; type: in vivo, Digitaria sanguinalis; conditions: Digitaria sanguinalis, 504 h
How it was run: (§2)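 Post-emergence greenhouse test; one-leaf stage, 2–3 wk post-sowing, sandy loam. Foliar spray of WP/EC in water, 600–800 l/ha, +0.2% wetting agent. Visual % action at ~3 wk vs untreated (100% = plants dead).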

[3] = tested on: ALOMY; assay: Pre-emergence herbicidal action against ALOMY; type: in vivo, Alopecurus myosuroides; conditions: Alopecurus myosuroides, 504 h; 80 g/ha, pre-emergence, scored visually after 3 weeks vs untreated controls (100% = plants have died, 0% = like control plants)
How it was run: as §1

[4] = tested on: POLCO; assay: Pre-emergence herbicidal action against POLCO; type: in vivo, Polygonum convolvulus; conditions: Fallopia convolvulus, 504 h; for pest or weed control at 80 g/ha: dosage 80 g/ha
How it was run: as §1

[5] = tested on: ECHCG; assay: Pre-emergence herbicidal action against ECHCG; type: in vivo, Echinochloa crus-galli; conditions: Echinochloa crus-galli, 504 h, 80 g/ha
How it was run: as §1

[6] = tested on: AMARE; assay: Pre-emergence herbicidal action against AMARE; type: in vivo, Amaranthus retroflexus; conditions: Amaranthus retroflexus, 504 h, scored visually after 3 weeks vs untreated controls, 100% = plants have died, 0% = like control plants
How it was run: as §1

[7] = tested on: VIOTR; assay: Pre-emergence herbicidal action against VIOTR; type: in vivo, Viola tricolor; conditions: Viola tricolor, 504 h; for pest or weed control at 20 g/ha: dosage 20 g/ha; for pest or weed control at 80 g/ha: dosage 80 g/ha
How it was run: as §1

[8] = tested on: VIOTR; assay: Post-emergence herbicidal action against VIOTR; type: in vivo, Viola tricolor; conditions: Viola tricolor, 504 h
How it was run: as §2

[9] = tested on: STEME; assay: Post-emergence herbicidal action against STEME; type: in vivo, Stellaria media; conditions: Stellaria media, 504 h, 20 g/ha
How it was run: as §2

[10] = tested on: STEME; assay: Pre-emergence herbicidal action against STEME; type: in vivo, Stellaria media; conditions: Stellaria media, 504 h; for pest or weed control at 20 g/ha: dosage 20 g/ha; for pest or weed control at 80 g/ha: dosage 80 g/ha
How it was run: as §1

[11] = tested on: ECHCG; assay: Post-emergence herbicidal action against ECHCG; type: in vivo, Echinochloa crus-galli; conditions: Echinochloa crus-galli, 504 h; for pest or weed control at 5 g/ha: dosage 5 g/ha; for pest or weed control at 20 g/ha: dosage 20 g/ha
How it was run: as §2

[12] = tested on: MATIN; assay: Post-emergence herbicidal action against MATIN; type: in vivo, Matricaria inodora; conditions: Tripleurospermum inodorum, 504 h; for pest or weed control at 20 g/ha: dosage 20 g/ha
How it was run: as §2

[13] = tested on: LOLRI; assay: Pre-emergence herbicidal action against LOLRI; type: in vivo, Lolium rigidum; conditions: Lolium rigidum, 504 h, 80 g/ha
How it was run: as §1

[14] = tested on: ABUTH; assay: Post-emergence herbicidal action against ABUTH; type: in vivo, Abutilon theophrasti; conditions: Abutilon theophrasti, 504 h, visual assessment about 3 weeks after treatment vs untreated controls; for pest or weed control at 5 g/ha: dosage 5 g/ha; for pest or weed control at 20 g/ha: dosage 20 g/ha
How it was run: as §2

[15] = tested on: DIGSA; assay: Pre-emergence herbicidal action against DIGSA; type: in vivo, Digitaria sanguinalis; conditions: Digitaria sanguinalis, 504 h; for pest or weed control at 20 g/ha: dosage 20 g/ha; for pest or weed control at 80 g/ha: dosage 80 g/ha
How it was run: as §1

[16] = tested on: AMARE; assay: Post-emergence herbicidal action against AMARE; type: in vivo, Amaranthus retroflexus; conditions: Amaranthus retroflexus, 504 h, 20 g/ha, visual assessment about 3 weeks after treatment, 100% = plants have died, 0% = like control plants
How it was run: as §2

[17] = tested on: VERPE; assay: Pre-emergence herbicidal action against VERPE; type: in vivo, Veronica persica; conditions: Veronica persica, 504 h, dosage 80 g/ha
How it was run: as §1

[18] = tested on: PHBPU; assay: Pre-emergence herbicidal action against PHBPU; type: in vivo, Pharbitis purpurea; conditions: Ipomoea purpurea, 504 h, dosage 80 g/ha
How it was run: as §1

[19] = tested on: SETVI; assay: Pre-emergence herbicidal action against SETVI; type: in vivo, Setaria viridis; conditions: Setaria viridis, 504 h, dosage 80 g/ha
How it was run: as §1

[20] = tested on: VERPE; assay: Post-emergence herbicidal action against VERPE; type: in vivo, Veronica persica; conditions: Veronica persica, 504 h, 20 g/ha
How it was run: as §2

[21] = tested on: SETVI; assay: Post-emergence herbicidal action against SETVI; type: in vivo, Setaria viridis; conditions: Setaria viridis, 504 h, dosage 20 g/ha
How it was run: as §2

[22] = tested on: MATIN; assay: Pre-emergence herbicidal action against MATIN; type: in vivo, Matricaria inodora; conditions: Tripleurospermum inodorum, 504 h; for pest or weed control at 20 g/ha: dosage 20 g/ha; for pest or weed control at 80 g/ha: dosage 80 g/ha
How it was run: as §1

[23] = tested on: ABUTH; assay: Pre-emergence herbicidal action against ABUTH; type: in vivo, Abutilon theophrasti; conditions: Abutilon theophrasti, 504 h; for pest or weed control at 80 g/ha: scored visually after 3 weeks vs untreated controls (100% = plants have died, 0% = like control plants); for pest or weed control at 20 g/ha: dosage 20 g/ha, scored visually after 3 weeks vs untreated controls, 100% = plants have died, 0% = like control plants, read-out: Pre-emergence action against ABUTH (herbicidal activity in percent)
How it was run: as §1

[24] = tested on: PHBPU; assay: Post-emergence herbicidal action against PHBPU; type: in vivo, Pharbitis purpurea; conditions: Ipomoea purpurea, 504 h; for pest or weed control at 5 g/ha: dosage 5 g/ha; for pest or weed control at 20 g/ha: dosage 20 g/ha
How it was run: as §2

[25] = tested on: ALOMY; assay: Post-emergence herbicidal action against ALOMY; type: in vivo, Alopecurus myosuroides; conditions: Alopecurus myosuroides, 504 h, dosage 20 g/ha, visual assessment about 3 weeks after treatment vs untreated controls
How it was run: as §2

[26] = tested on: AVEFA; assay: Post-emergence herbicidal action against AVEFA; type: in vivo, Avena fatua; conditions: Avena fatua, 504 h, 20 g/ha, visual assessment about 3 weeks after treatment, 100% = plants have died, 0% = like control plants
How it was run: as §2

SMILES	pest or weed control at 80 g/ha [1] [%]	pest or weed control at 5 g/ha [2] [%]	pest or weed control at 20 g/ha [2] [%]	pest or weed control at 80 g/ha [3] [%]	pest or weed control at 80 g/ha [4] [%]	pest or weed control at 80 g/ha [5] [%]	pest or weed control at 20 g/ha [6] [%]	pest or weed control at 80 g/ha [6] [%]	pest or weed control at 20 g/ha [7] [%]	pest or weed control at 80 g/ha [7] [%]	pest or weed control at 5 g/ha [8] [%]	pest or weed control at 20 g/ha [8] [%]	pest or weed control at 20 g/ha [9] [%]	pest or weed control at 20 g/ha [10] [%]	pest or weed control at 80 g/ha [10] [%]	pest or weed control at 5 g/ha [11] [%]	pest or weed control at 20 g/ha [11] [%]	pest or weed control at 20 g/ha [12] [%]	pest or weed control at 80 g/ha [13] [%]	pest or weed control at 5 g/ha [14] [%]	other results
CCNC(=O)c1c(C(F)F)ccc(C(=O)Nc2nnnn2C)c1C [Example 1-45]	90	80	80	90	90	90	100	100	80	100	80	90	80	90	90	80	80	80	80	80	pest or weed control at 20 g/ha ([4]; dosage 20 g/ha): 90%; pest or weed control at 5 g/ha ([12]; dosage 5 g/ha): 80%; pest or weed control at 20 g/ha [14]: 90%; pest or weed control at 20 g/ha [15]: 100%; pest or weed control at 80 g/ha [15]: 100%; pest or weed control at 20 g/ha [16]: 90%; pest or weed control at 80 g/ha [17]: 90%; pest or weed control at 80 g/ha [18]: 90%; pest or weed control at 80 g/ha [19]: 100%; pest or weed control at 20 g/ha [20]: 80%; pest or weed control at 20 g/ha [21]: 80%; pest or weed control at 20 g/ha [22]: 100%; pest or weed control at 80 g/ha [22]: 100%; pest or weed control at 80 g/ha [23]: 100%; pest or weed control at 20 g/ha [23]: 80%; pest or weed control at 5 g/ha [24]: 80%; pest or weed control at 20 g/ha [24]: 80%
Cc1c(C(=O)Nc2nnnn2C)ccc(C(F)F)c1C(=O)NC1CC1 [Example 1-46]	100	80	80	90	80	80	100	100	90	100	80	80	80	90	100	80	80	80	90	90	pest or weed control at 20 g/ha [25]: 90%; pest or weed control at 20 g/ha [26]: 80%; pest or weed control at 20 g/ha [14]: 90%; pest or weed control at 20 g/ha [15]: 90%; pest or weed control at 80 g/ha [15]: 100%; pest or weed control at 20 g/ha [16]: 100%; pest or weed control at 80 g/ha [17]: 90%; pest or weed control at 80 g/ha [18]: 80%; pest or weed control at 80 g/ha [19]: 100%; pest or weed control at 20 g/ha [20]: 90%; pest or weed control at 20 g/ha [21]: 80%; pest or weed control at 20 g/ha [22]: 90%; pest or weed control at 80 g/ha [22]: 100%; pest or weed control at 80 g/ha [23]: 100%; pest or weed control at 20 g/ha [23]: 90%; pest or weed control at 5 g/ha [24]: 80%; pest or weed control at 20 g/ha [24]: 80%
